One experiment relates to p53. Kind of experiment: Nuclear accumulation of p53 after UV (immunostaining). Type of experiment: cell-based, rat. Conditions: Tax-expressing REF52 in response to UV damage. The text has this:
A key player in initiation of the UV-repair response and activation of cell cycle arrest is p53. Activation of p53 is signaled by an accumulation of P53 in the nucleus of cells exposed to UV light. To examine whether Tax-expressing cells display this early p53 response, REF52 cells were transduced with suboptimal viral titers to produce an estimated 50% transduction efficiency. The cells were exposed to UV and examined for nuclear expression of p53.

The test system of another experiment is REF52 and p53d cells. Kind of experiment: Flow cytometry cell cycle analysis (G1 checkpoint) after UV. Type of experiment: cell-based. Conditions: synchronized at G0, UV treatment, 20% serum; wild type or deleted p53 background. As for the experimental part: For cell cycle analysis, cells were collected by gentle scraping following a rapid EDTA rinse and concentrated by low speed centrifugation and washed in 1×PBS, and fixed with cold 70% ethanol. Cells were stained with a PI solution (PBS 1×, RNase A [10 μg/ml], and Propidium Iodide [50 μg/ml]) followed by cell sorting analysis. FACS data acquired were analyzed by CellQuest software.
To determine whether the failure in cell cycle arrest was due to a failed G1 checkpoint, cells were synchronized at G0 by serum starvation. The cells were then cultured in 20% serum to stimulate return to cell cycle following UV treatment. Cell cycle was determined by total DNA content as described above. […] This was true for either a wild type or deleted p53 background. Therefore, the failure in cell cycle arrest is due at least in part to a failed G1 arrest.

The subject of another experiment is p53 and p21. Kind of experiment: Immunoblot of p53 and p21 after UV. Type of experiment: cell-based, rat. Conditions: UV-induced DNA damage; Tax-expressing and control REF52. As for the experimental part:
Approximately 2×10^6 cells were harvested and proteins extracted with […] Mammalian Protein Extraction Reagent (Pierce). 50 μl of 4× Laemmli buffer was added to the lysate. […] of the lysate was electrophoresed through a 10% SDS polyacrylamide gel. The proteins were electroblotted onto an Immobolin-P membrane (Millipore), and probed with the indicated primary antibody and the appropriate secondary alkaline phosphatase-conjugated antibody. Immunoreactivity was detected via Western Star chemiluminescence protein detection (Tropix).
To further analyze the p53 response in Tax-expressing cells, both Tax-expressing and control REF52 cells were examined for stabilization of steady-state p^53 and transient induction of p21. Since induction of p21 is a key event in p53-mediated cell cycle arrest, analysis of the p21 levels in Tax-expressing cells could determine the integrity of this signal. Tax-expressing and control cells were exposed to UV and harvested for western analysis pre-exposure and at eight hours and twenty four hours post exposure. […] Thus, one p53-dependent signal for cell cycle arrest, transient induction of p21, was intact.
On the technique in general: Immunoblotting shows a protein as a band on a membrane.

Experiment [1] concerns p53−/− cells. Nature of the experiment: Percent surviving cells after sublethal UV. Type of experiment: cell-based. Conditions: 24 hours after treatment. As to the method:
(§1) It was reasoned that if Tax-expressing cells display impaired damage response in a p53 independent manner then cells both deleted for p53 and expressing Tax would be more prone to apoptotic cell death in response to UV. To test this hypothesis, the apoptotic response of both Tax-expressing and control p53−/− cells was examined. Tax-expressing and control cells were exposed to sublethal doses of UV and examined for percent surviving cells 24 hours after treatment.

Experiment [2] has as its system p53 mutant background (HeLa). Nature of the experiment: Percent surviving cells after sublethal UV. Conditions: 24 hours after treatment, vs control cells. Type of experiment: cell-based. As for the experimental part: as §1
The test system of experiment [3] is REF52 cells. Nature of the experiment: Global nucleotide excision repair assay (unscheduled DNA synthesis, BrdU). Type of experiment: cell-based, rat. Conditions: G1 synchronized cells, UV 20 j/m^2, BrdU. As for the experimental part: REF52 cells were seeded onto glass coverslips and transduced to express Tax at 25% efficiency. Sub-confluent Tax-expressing REF52 cells were cultured in 0.5% serum for 48 hrs, to synchronize at G0, prior to irradiation. The cells were released from G0 with addition of complete medium. At four hours post-release, the cells were irradiated with UV light (20 j/m^2) using a UV chamber-GS Gene Linker (Bio-Rad) and incubated for 30 min with 10 μM BrdU containing medium. The cells were then washed 4× with PBS and fixed in 4% paraformaldehyde. Cells were permeabilized with 2 minutes incubation in 100% methanol and washed 4× with PBS. The prepared cells were then reacted with both anti-Tax and anti-BrdU in PBS (containing 2% BSA). Primary antibodies were removed by washing 4× with 1% Tween 20 in PBS (PBS-Tween). Secondary conjugated antibodies were reacted for one hour at room temperature (RT). The cells were then washed with PBS-Tween and the slips were inverted onto slides with Vecta Shield (Vector Laboratories, CA). Incorporation of BrdU into the nucleus of cells at G1 corresponded to unscheduled repair synthesis.
A failure in damage-induced cell cycle arrest would result in reduced repair efficiency and could explain the Tax-associated NER deficiency. […]

Experiment [4] deals with REF52 cells. Nature of the experiment: UV-induced apoptosis, Vybrant Apoptosis Assay. Type of experiment: cell-based, rat. Conditions: Tax-expressing REF52 following UV exposure. As to the method: (§2) Tax-expressing cells were treated with different UV doses (0, 20 and 50 j/m^2) and assessed at different time points post-transduction (4, 8, 12 and 24 hrs). Cells were separated into living, necrotic or apoptotic populations using the triple source fluorescent labeling, Vybrant Apoptosis Assay kit (Molecular Probes) according to the manufacturer's recommendations.
In addition to repair, at least two key events occured in the UV-induced cellular DNA damage response. These are initiation of cell cycle arrest and induction of apoptosis. The ability of Tax-expressing REF52 cells to undergo cell cycle arrest and apoptosis was assessed. Tax-expressing and control cells were subjected to UV irradiation and examined for apoptotic events and cell cycle profile. Prior to exposure to UV, the percent of non-apoptotic, apoptotic and necrotic cells were examined. The three populations were identified using the Vybrant assay. […] The same results were seen using several Tax-expressing cells including GM00010B (data not shown).

The test system of experiment [5] is Hela cells and p53 deleted cell line. Nature of the experiment: Cytokinesis block cell cycle progression assay in p53 repressed/deleted cells. Type of experiment: cell-based. Conditions: exposed to UV, cytochalasin B, 36 hours; partial (25%) and 100% transduction. As for the experimental part:
(§3) Asynchronous cell cultures were seeded on coverslips and exposed to UV irradiation and allowed to recover for 1 hour. Cytochalasin B was added and the cultures incubated for 36 hours. The coverslips were fixed with paraformaldehyde/methanol and stained with propidium iodide. Slides were prepared and cell nuclei examined by microscopy. Bi-nucleus cells were considered dividing.
To test this hypothesis, the cell cycle arrest response was examined in Tax-expressing and control p53−/− cells. Tax-expressing and control Hela cell groups were subjected to the cytokinesis block cell cycle progression assay as described above. Each cell group was exposed to UV and incubated with cytochalasin B one hour later. The cells were examined after 36 hours for the presence of binucleated dividing cells. Hela cells transduced to express Tax at 25% efficiency. Tax-expressing Hela cells were identified by immunofluorescence using anti-Tax mouse monoclonal antibody and FITC-conjugated anti-mouse secondary antibody. The nuclei were stained with propidium iodide. Hela and Tax-expressing Hela formed binuclei indicating normal division. […] In experiments using 100% transduction of Tax, 1000 cell events were counted.

Experiment [6] concerns REF52 cells. Nature of the experiment: Host cell reactivation assay (nucleotide excision repair capacity). Type of experiment: cell-based, rat. Conditions: Tax-expressing REF52 vs control GFP-expressing REF52; UV-damaged CAT reporter. As for the experimental part: pSV2-CAT reporter plasmid was damaged ex vivo by exposure to 1000 j/m^2 of Uv-C light using a UV chamber-GS Gene Linker (Bio-Rad). REF52 and XP-A cells were transfected with 4 μg of UV-irradiated or non-irradiated pSV2-CAT plasmid together with an undamaged reporter plasmid (pMSV-Luc), and with or without Tax plasmid. Forty-eight hours after calcium phosphate transfection, cells were pelleted and resuspended in 250 μl of 250 mM Tris pH8.0. For the Luciferase assay, 25 μl of the total cellular extract was added to 50 μl of luciferase substrate. Luciferase activity was quantitated in a Luminometer. Cat assays were performed in parallel with the same cells as described (Semmes, O., et al., J. Virol. 66(12):7183-92 (1992)). Cat activity was normalized to luciferase activity of the same extract. Repair activity was calculated by setting normalized cat activity from cells cotransfected with non-irradiated pSV2-CAT to 100%. The repair activity of duplicate cells cotransfected with irradiated pSV2-CAT was reported as a percentage of that activity.
In examining the biological response of Tax-expressing cells to UV-induced DNA damage, efficient Nucleotide Excision Repair (NER) ability was tested. The Host Cell Reactivation Assay (HCRA) was used as a measure of NER capacity in Tax-expressing REF52 cells. […] Thus, Tax expression results in reduced NER capacity as measured by HCRA.

The test system of the next experiment is p53+/+ cells (REF52). Nature of the experiment: Percent surviving cells after sublethal UV. Conditions: 24 hours after treatment, vs control cells. Type of experiment: cell-based, rat.
Experiment [7] concerns p53−/− cells. Kind of experiment: UV-induced apoptosis, Vybrant Apoptosis Assay. Type of experiment: cell-based. Conditions: UV 20 and 50 J/m^2, 12 and 24 hours. As to the method:
as §2
The early apoptotic response of Tax-expressing p53−/− cells was also observed. In this series of experiments the cell groups were exposed to 0 J/m^2, 20 J/m^2 and 50 J/m^2 and apoptosis measured at 12 and 24 hours (FIG. 7). […] This level of UV-induced apoptosis is equivalent to that seen in cells defective in NER (FIG. 3).

For experiment [8], the system named is REF52 cells. Nature of the experiment: Cytokinesis block cell cycle progression assay. Type of experiment: cell-based, rat. As for the experimental part: as §3
Next, the cell cycle response of Tax-expressing cells was measured. REF52 and REF+Tax cells were subjected to the cytokinesis block cell cycle arrest assay to determine the intactness of the damage-induced checkpoint. In this assay, asynchronous cells were exposed to UV and incubated with cytochalasin B one hour later. The cell population was examined 36 hours later and assessed for division events. […] In contrast REF52 cells exposed to UV light initiated cell cycle arrest and presented a predominately (>90%) mononuclear cell population. However, Tax-expressing REF52 cells, exposed to UV, presented nearly 75% of the population as binucleated cells indicating a failure to arrest in cell cycle in response to UV-induced DNA damage. For each data point, 1000 cells were analyzed.

Where only a bound is given, the exact number is not on record here.

With Tax, in the experiment on p53, the “nuclear accumulation of P53” value is listed as “strong nuclear accumulation of P53”. In addition, in the experiment on REF52 and p53d cells, the “percentage of cells leaving G1” value is “consistent and significant increase”. For the same substance, the “steady-state protein levels of p53” value in the experiment with p53 and p21 is “stabilization of steady-state protein levels of p53”. For the same substance, the “cell death in response to UV exposure” value with p53−/− cells [1] was “significant cell death”. For the same substance, the “percent of surviving cells” value (in experiment [2]; with p53+/+ cells (REF52)) was “no decreased percent of surviving cells” each time. Also, the “UV-induced unscheduled DNA synthesis” value with REF52 cells [3] is recorded as “indistinguishable from control cells”. For the same substance, the “apoptotic response to DNA damage” value with REF52 cells [4] is “normal apoptotic response”. For the same substance, the “percent of binucleated cells” value in experiment [5] is on record as greater than 72%. The NER capacity result with REF52 cells [6] is “significantly reduced”. The apoptosis result in the experiment on p53−/− cells [7] is “Significant apoptosis”. In addition, the binucleated cells in the experiment with REF52 cells [8] (exposed to UV, cytochalasin B, examined 36 hours later, 1000 cells per data point) was roughly 75%. Besides, the “binucleated cell profile without UV” value with REF52 cells [8] (unexposed to UV) was “same profile as in the absence of Tax”.

For the origin of these results see patent publication US20050214945A1, “Htlv-I tax induced killing of p53 null cancer cells” (Eastern Virginia Medical School, priority 2002, published 2005).
